Reference: PubChem BioAssay AID608 (Sanford-Burnham Center for Chemical Genomics, 2007)
Active and inactive are the calls of the source. How the calls were made is not given here.

Biological target: Peptidyl-prolyl cis-trans isomerase FKBP1A (Homo sapiens) (UniProt P62942)
Assay: small-molecule binding to FKBP12 – biophysical, NMR detection (AID 608)
Conditions: purified FKBP12

Chain of Peptidyl-prolyl cis-trans isomerase FKBP1A (Homo sapiens) (P62942 whole entry, looked up): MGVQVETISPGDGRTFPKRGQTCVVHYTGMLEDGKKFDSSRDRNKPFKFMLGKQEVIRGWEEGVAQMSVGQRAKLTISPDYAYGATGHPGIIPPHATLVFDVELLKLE

SMILES	Kd
CC(=O)c1cccc(NC(=O)N2CCc3ccccc3C2)c1	> 4 mM (inactive)
C[C@H]1C(=O)CCC2[C@]3(C)CC[C@@]4(C)C5CC(C)(C)CC[C@]5(C)CC[C@]4(C)C3CC[C@@]21C (stereo partly specified)	> 4 mM (inactive)
CC(C)(C)c1cc(CN)c(C(=O)O)o1	> 4 mM (inactive)
Cc1nc2ccccc2n1S(=O)(=O)N1CCCCC1	inactive
CNc1nnc(CSc2nc(C)cc(C)n2)s1	> 4 mM (inactive)
O=C(c1ccco1)N1CCNCC1	> 4 mM (inactive)
O=C(O)c1ccc(NCc2cccnc2)cc1	> 4 mM (inactive)
Cc1nc2ccccc2c(=O)n1-c1cccc(O)c1	> 4 mM (inactive)
O=C(NCc1ccc2c(c1)OCO2)c1cccs1	> 4 mM (inactive)
O=C1CSC(=S)N1Cc1cccnc1	> 4 mM (inactive)
O=S(=O)(Nc1ccc2c(c1)OCCO2)c1cccs1	> 4 mM (inactive)
S=c1[nH]c2cccnc2[nH]1	> 4 mM (inactive)
Cc1cc(C(=O)N2CCN(c3ncccn3)CC2)c(C)o1	> 4 mM (inactive)
CCOC(=O)C1=C(C)N2CCN=C2S1	> 4 mM (inactive)
OCc1ccc(OC(F)(F)F)cc1	> 4 mM (inactive)
CC(C)=NNC(=O)C(=O)Nc1ccc(F)cc1	> 4 mM (inactive)
COC(=O)c1cnccc1C(F)(F)F	> 4 mM (inactive)
c1ccc(Cc2nnc3sc(-c4ccccn4)nn23)cc1	> 4 mM (inactive)
Nc1ccc(S(=O)(=O)Nc2nccs2)cc1	> 4 mM (inactive)
COc1cccc(NC(=O)c2ocnc2C)c1	> 4 mM (inactive)
C=C1CCC2C(CC2(C)C)C(=O)CCC1O (stereo unspecified)	> 4 mM (inactive)
O=C(COc1ccccc1F)N1CCOCC1	inactive

SMILES	Kd
O=C(NC(=S)NN1CCOCC1)c1cccs1	> 4 mM (inactive)
O=C1NC(=S)N/C1=C/c1ccc(O)c(Cl)c1	> 4 mM (inactive)
Cc1c(O)c(O)cc2c1CC=C1[C@@]2(C)CC[C@@]2(C)C3C[C@](C)(C(=O)O)CC[C@]3(C)CC[C@]12C (stereo partly specified)	> 4 mM (inactive)
NC(=O)Cc1nc(-c2ccccc2)cs1	> 4 mM (inactive)
O=c1cc(O)n(-c2ccc(F)cc2)c(=S)[nH]1	> 4 mM (inactive)
COc1ccc(-c2c(OC)c3c(OC)c4c(cc3oc2=O)OC(C)(C)C=C4)cc1	> 4 mM (inactive)
O=C1C=CC2=C3c4cc(O)c(O)cc4CC3(O)COC2=C1O (stereo unspecified)	> 4 mM (inactive)
COc1cc(OC)c2c(c1Cl)OC1(C2=O)C(O)=CC(=O)CC1C (stereo unspecified)	> 4 mM (inactive)
CC(=O)NCc1nc2ccccc2[nH]1	> 4 mM (inactive)
Cc1nc(-c2ccccc2)sc1C(N)=O	> 4 mM (inactive)
Oc1cc(O)cc(/C=C/c2ccccc2)c1	> 4 mM (inactive)
O=C(c1ccccc1)N1CCN(c2ccccc2F)CC1	> 4 mM (inactive)
CCC1(CC)C(=O)NC(=O)N=C1N	> 4 mM (inactive)
O=C(O)C1CSC(c2ccco2)N1 (stereo unspecified)	> 4 mM (inactive)
CC(C)=NNC(=O)c1ccccc1	> 4 mM (inactive)
CC(C)=CCc1c(O)cc2oc(C)cc(=O)c2c1O	> 4 mM (inactive)
CC(C)NC(=S)N1CCN(S(C)(=O)=O)CC1	> 4 mM (inactive)
O=C(O[C@@H]1Cc2c(O)cc(O)cc2O[C@@H]1c1cc(O)c(O)c(O)c1-c1c([C@H]2Oc3cc(O)cc(O)c3C[C@H]2O)cc(O)c(O)c1O)c1cc(O)c(O)c(O)c1	> 4 mM (inactive)
S=C(c1ccc2c(c1)OCO2)N1CCCC1	> 4 mM (inactive)
N[C@@H](Cc1cc(I)c(Oc2cc(I)c(O)c(I)c2)c(I)c1)C(=O)O	> 4 mM (inactive)
O=C(Nc1ccc2c(c1)OCO2)c1cnn2cccnc12	> 4 mM (inactive)
CC(=O)CC(=O)N1C(O)CC[N+]1(C)C (stereo unspecified)	> 4 mM (inactive)

SMILES	Kd
Cc1cc(C)cc(C(=O)n2cnnc2N)c1	> 4 mM (inactive)
O=C(O)c1cc2ccccc2cn1	> 4 mM (inactive)
CCOc1ccc(NS(=O)(=O)N2CCCCC2)cc1	inactive
CCP(=O)(CC)c1cccc(C)c1	> 4 mM (inactive)
Cc1cccc(N2C(=O)CC(=O)NC2=O)c1	> 4 mM (inactive)
COc1ccc2[nH]cc(CCN(C)C)c2c1	> 4 mM (inactive)
COc1ccc(Cl)cc1NS(=O)(=O)N1CCOCC1	inactive
C[C@@H]1[C@H]2[C@H](O[C@@H]3O[C@H](CO)[C@@H](O)[C@H](O)[C@H]3O)OC=C(C(=O)O)[C@H]2C[C@@H]1O	> 4 mM (inactive)
CC1=NN2C(=N)/C(=C\c3cccs3)C(=O)N=C2S1	> 4 mM (inactive)
CC(C)c1nnc(N)s1	> 4 mM (inactive)
CC(C)=CC(=O)Nc1ccc2c(c1)OCO2	> 4 mM (inactive)
CCOC(=O)c1ccc(F)c(F)c1	> 4 mM (inactive)
OCc1ccc(Oc2ccccc2)nc1	> 4 mM (inactive)
O=C1CSC(=Nc2ccc(O)cc2)N1	> 4 mM (inactive)
Cc1c(N=CN2CCOCC2)c(=O)n(C)c(=O)n1C	> 4 mM (inactive)
COC(=O)c1c(SC)nc(-c2ccccc2)[nH]c1=O	> 4 mM (inactive)
Cn1cccc1C(=S)N1CCOCC1	> 4 mM (inactive)
NC(Cc1c[nH]c2ccccc12)C(=O)O (stereo unspecified)	> 4 mM (inactive)
c1ccc(CN2CCC3(CC2)Nc2ccccc2CO3)cc1	> 4 mM (inactive)
C=C(C)CSc1nc2nc(C)cc(C)n2n1	> 4 mM (inactive)
CCCc1cc2c(c(NC(C)=O)n1)c(=O)oc1ccccc12	> 4 mM (inactive)
CS(=O)(=O)N1CCN(C(=O)c2ccccc2)CC1	> 4 mM (inactive)

SMILES	Kd
CCCCCCCCCCCCCCC(C(=O)O)C(O)(CC(=O)OC)C(=O)O (stereo unspecified)	> 4 mM (inactive)
Cc1cc(OC(=O)c2ccco2)c([N+](=O)[O-])c(=O)[nH]1	> 4 mM (inactive)
Cn1c(SCC(N)=O)nnc1-c1cccnc1	> 4 mM (inactive)
CN1C(=O)CC[C@H]1c1cccnc1	> 4 mM (inactive)
NC(=O)C(=O)Nc1nc(-c2ccccc2)cs1	> 4 mM (inactive)
Cn1cnc2nc3n(c2c1=O)CCC3	> 4 mM (inactive)
Cc1occc1C(=O)Nc1ccc(C(N)=O)cc1	> 4 mM (inactive)
NC(CC(=O)O)c1ccccc1 (stereo unspecified)	> 4 mM (inactive)
O=C(O)c1ccc2ncccc2c1	> 4 mM (inactive)
Cc1nn2c(=O)nc3sc4c(c3c2[nH]c1=O)CCCC4	> 4 mM (inactive)
CC(C)=CCOc1c2occc2cc2ccc(=O)oc12	> 4 mM (inactive)
O=C(/C=C/c1ccccc1)c1ccc(O)cc1	> 4 mM (inactive)
O=C(c1nc2ncccn2n1)N1CCc2ccccc2C1	> 4 mM (inactive)
NCc1csc(-c2ccccc2)n1	> 4 mM (inactive)
C[C@@H]1CCC2[C@](C)(CO)[C@@H](O)CC[C@]2(C)[C@@]12CC[C@@](CO)(CCO)O2 (stereo partly specified)	> 4 mM (inactive)
COc1cc(OC)c2ccc(=O)oc2c1	> 4 mM (inactive)
CC(=O)c1cc(CN2C(=O)c3ccccc3C2=O)cs1	> 4 mM (inactive)
Cc1oc(-c2ccccc2)cc1CO	> 4 mM (inactive)
CC(=O)Nc1cccc(N2C(=O)CCC2=O)c1	> 4 mM (inactive)
Cc1ccc(NS(=O)(=O)N2CCOCC2)cc1Cl	inactive
